Patent publication KR20170031305A, “방사성 요오드 표지 아자이드 추적체, 이의 제조방법 및 이를 유효성분으로 포함하는 방사성 요오드 표지 또는 의료 진단용 조성물” (한국원자력연구원, priority 2015, dated 2017)

Columns and labels:
[1] = Biodistribution in ICR mice after intravenous injection, gamma counter (Experimental Example 3); type: in vivo; conditions: ICR male mice, i.v., 1 μCi/100 μL per mouse
[2] = Stability in normal mouse serum at 37 °C, radio-TLC (Experimental Example 2); type: in vitro ADME

time to absorption and accumulation in liver and kidney [1]: ≤ 15 min
tissue uptake at 1 h ([1]; liver and kidney, iv, 1 uCi/animal, within 1 h, read-out: concentration (liver and kidney)): ≤ 20 %ID/g
tissue uptake at 2 h ([1]; liver and kidney, iv, 1 uCi/animal, within 2 h, read-out: concentration (liver and kidney)): ≤ 10 %ID/g
accumulation in liver and kidney ([1]; within 15 min): 높은 농도로 집적
excretion from the body ([1]; within 2 h): ≥ 90%
decrease of radiochemical purity in mouse serum ([2]; after 5 h): 거의 감소하지 않고
remaining at 5 h ([2]; after 5 h, read-out: radiochemical purity in mouse serum): ≥ 95%
remaining at 24 h ([2]; after 24 h, read-out: radiochemical purity in mouse serum): ≥ 90%
Compound: [N-]=[N+]=NCCOCCOCCOCCNC(=O)c1ccc([125I])cc1 [실시예 1, 125I이 표지된 N-(2-(2-(2-(2-아지도에톡시)에톡시)에톡시)에틸)-4-아이오도벤즈아마이드]
